pEC50, pKi: −log10 of the molar value. Like-named read-outs stand apart in the source and are kept apart here.
What was measured:
[1] = target: T1, human AR (androgen receptor) (Homo sapiens, UniProt P10275); experiment: Steroid hormone nuclear receptor binding assay, AR binding
T1 construct: expressed in transfected cells; host or cells: 293 cells (293-AR lysate)
T1 sequence (P10275 1-920): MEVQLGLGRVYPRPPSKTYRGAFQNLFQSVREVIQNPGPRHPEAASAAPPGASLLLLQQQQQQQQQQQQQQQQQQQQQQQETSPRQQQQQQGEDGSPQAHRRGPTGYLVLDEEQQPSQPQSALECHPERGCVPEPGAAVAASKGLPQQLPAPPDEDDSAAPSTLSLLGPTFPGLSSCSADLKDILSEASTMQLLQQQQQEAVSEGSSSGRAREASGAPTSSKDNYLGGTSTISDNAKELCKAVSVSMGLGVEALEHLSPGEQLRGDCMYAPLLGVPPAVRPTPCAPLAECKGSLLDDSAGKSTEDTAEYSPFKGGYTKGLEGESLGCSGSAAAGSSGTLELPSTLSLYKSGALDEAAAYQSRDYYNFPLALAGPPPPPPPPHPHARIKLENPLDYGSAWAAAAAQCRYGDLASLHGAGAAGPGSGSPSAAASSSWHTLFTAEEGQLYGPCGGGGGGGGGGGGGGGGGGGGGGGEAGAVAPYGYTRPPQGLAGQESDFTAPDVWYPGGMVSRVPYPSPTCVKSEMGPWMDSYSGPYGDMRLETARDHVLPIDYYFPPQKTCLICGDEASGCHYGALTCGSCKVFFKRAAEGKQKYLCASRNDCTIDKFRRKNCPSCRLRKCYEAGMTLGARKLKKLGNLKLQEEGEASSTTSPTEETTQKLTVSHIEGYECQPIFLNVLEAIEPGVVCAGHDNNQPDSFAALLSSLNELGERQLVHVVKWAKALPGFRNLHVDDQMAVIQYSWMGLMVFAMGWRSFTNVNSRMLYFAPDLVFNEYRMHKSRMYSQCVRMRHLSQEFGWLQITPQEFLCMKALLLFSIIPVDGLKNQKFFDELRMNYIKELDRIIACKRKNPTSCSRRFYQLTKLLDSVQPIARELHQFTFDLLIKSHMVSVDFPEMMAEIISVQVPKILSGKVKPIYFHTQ
Procedure: Cell lysates from 293 cells overexpressing human GR (glucocorticoid receptor), AR (androgen receptor), MR (mineralocorticoid receptor) or PR (progesterone receptor) are used for competition binding assays to determine Ki values for test compounds. […] Competing compounds are added at various concentrations ranging from about 0.01 nM to 10 μM. Non-specific binding is determined in the presence of 500 nM dexamethasone for GR binding, 500 nM aldosterone for MR binding, or 500 nM methyltrienolone for AR and PR binding. The binding reaction (140 μl) is incubated for overnight at 4° C., then 70 μl of cold charcoal-dextran buffer (containing per 50 ml of assay buffer, 0.75 g of charcoal and 0.25 g of dextran) is added to each reaction. Plates are mixed 8 minutes on an orbital shaker at 4° C. Plates are then centrifuged at 3,000 rpm at 4° C. for 10 minutes. An aliquot of 120 μl of the mix is transferred to another 96-well plate and 175 μl of Wallac Optiphase “Hisafe 3” scintillation fluid is added to each well. Plates are sealed and shaken vigorously on an orbital shaker. After an incubation of 2 hrs, plates are read in a Wallac Microbeta counter. […] The Kd for ^3H-dexamethasone for GR binding, ^3H-methyltrienolone for AR binding, ^3H-aldosterone for MR binding, or ^3H-methyltrienolone for PR binding, is determined by saturation binding. The IC50 values for test compounds are converted to Ki using Cheng-Prusoff equation and the Kd determined by saturation binding assay. […]

[2] = target: T2, human androgen receptor (AR) (Homo sapiens, UniProt P10275); experiment: C2C12 AR/ARE reporter assay; format: cell-based
T2 construct: expressed in transfected cells; host or cells: mouse myoblast C2C12 cells, transiently co-transfected
T2 sequence (P10275 1-920): T1 sequence (P10275 1-920)
Procedure: As an indicator of agonist activity in muscle tissue, the C2C12 AR/ARE reporter assay is performed. Briefly, mouse myoblast C2C12 cells are co-transfected using FuGENE™. […] Cells are transfected in T150 cm^2 flasks in DMEM media with 4% or 10% Fetal Bovine Serum […]. After a 5 hour incubation, transfected cells are trypsinized, plated in 96 well dishes in DMEM media containing 10% charcoal-stripped FBS, incubated for 2 h and then exposed to various concentrations of test compounds ranging from about 0.01 nM to 10 μM. After 48 h of incubations with compounds, cells are lysed and luciferase activity is determined using standard techniques. Data is fit to a 4 parameter-fit logistics to determine EC50 values. The % efficacy is determined versus maximum stimulation obtained with 10 nM methyltrienolone. […]

[3] = C2C12, read-out: C2C12 % Efficacy
[4] = average of n trials, read-out: AR binding Ki
[5] = C2C12 AR/ARE reporter assay, average of n trials, read-out: C2C12 % Efficacy
[6] = C2C12 AR/ARE reporter assay, average of n trials, read-out: C2C12 EC50

Structure (SMILES)	pKi [1]	pEC50 [2]	Emax [2, 3]	pKi [1, 4]	Emax [2, 5]	pEC50 [2, 6]
N#Cc1ccc2c(c1)c1c(n2Cc2cccc(F)c2)CCC(NS(=O)(=O)C2CC2)C1 (centres unmarked) [Example 177, Cyclopropanesulfonic acid[6-cyano-9-(3-fluoro-benzyl)-2,3,4,9-tetrahydro-1H-carbazol-3-yl)-amide]	8.42	6.99	75.2%	–	–	–
CC(C)C(=O)NC1CCc2c(c3cc(C(F)F)ccc3n2Cc2cccc(F)c2)C1 (centres unmarked) [Example 198, N-[6-Difluoromethyl-9-(3-fluoro-benzyl)-2,3,4,9-tetrahydro-1H-carbazol-3-yl]-isobutyramide]	–	–	–	8.49	102%	7.96
CCC(=O)NC1CCc2c(c3cc(OC)ccc3n2Cc2ccccc2)C1 (centres unmarked) [Example 66, N-(9-Benzyl-6-methoxy-2,3,4,9-tetrahydro-1H-carbazol-3-yl)-propionamide]	–	–	–	8.16	79.8%	7.72
CC(C)C(=O)NC1CCc2c(c3cc(C#N)ccc3n2Cc2ccccc2N)C1 (centres unmarked) [Example 109, N-[9-(2-Amino-benzyl)-6-cyano-2,3,4,9-tetrahydro-1H-carbazol-3-yl]-isobutyramide]	7.80	8.64	76.9%	–	–	–
COc1ccc(Cn2c3c(c4cc(C#N)ccc42)CC(NC(=O)C(C)C)CC3)cc1 (centres unmarked) [Example 87]	7.75	–	10.6%	–	–	–
Cc1nc(Cn2c3c(c4cc(C#N)ccc42)CC(NC(=O)C(C)C)CC3)cs1 (centres unmarked) [Example 150, N-[6-Cyano-9-(2-methyl-thiazol-4-ylmethyl)-2,3,4,9-tetrahydro-1H-carbazol-3-yl]-isobutyramide]	7.71	7.01	91.3%	–	–	–
CC(C)C(=O)N[C@@H]1CCc2c(c3cc(C#N)ccc3n2Cc2csc(Cl)n2)C1 [Example 154, (R)-N-[9-(2-Chloro-thiazol-4-ylmethyl)-6-cyano-2,3,4,9-tetrahydro-1H-carbazol-3-yl]-isobutyramide]	8.66	8.36	119%	–	–	–
CCNc1ccccc1Cn1c2c(c3cc(C#N)ccc31)CC(NC(=O)C(C)C)CC2 (centres unmarked) [Example 112, N-[6-Cyano-9-(2-ethylamino-benzyl)-2,3,4,9-tetrahydro-1H-carbazol-3-yl]-isobutyramide]	7.90	7.57	101%	–	–	–
Cc1csc(Cn2c3c(c4cc(C#N)ccc42)C[C@H](NC(=O)C(C)C)CC3)n1 [Example 156, (R)-N-[6-Cyano-9-(4-methyl-thiazol-2-ylmethyl)-2,3,4,9-tetrahydro-1H-carbazol-3-yl]-isobutyramide]	7.97	7.52	79.4%	–	–	–
COc1ccc2c(c1)c1c(n2Cc2ccccc2F)CCC(NC(=O)C(C)C)C1 (centres unmarked) [Example 78]	6.73	6.62	71.5%	–	–	–
O=Cc1ccc2c(c1)c1c(n2Cc2ccccn2)CCC(NC(=O)C2CC2)C1 (centres unmarked) [Example 206]	7.00	6.69	96.1%	–	–	–
CC(C)C(=O)NC1CCc2c(c3cc(C#N)ccc3n2Cc2cnc(Cl)s2)C1 (centres unmarked) [Example 155, N-[9-(2-Chloro-thiazol-5-ylmethyl)-6-cyano-2,3,4,9-tetrahydro-1H-carbazol-3-yl]-isobutyramide]	7.87	6.99	54.8%	–	–	–
COc1ccc2c(c1)c1c(n2Cc2ccccc2)CCC(NC(=O)C2CC2)C1 (centres unmarked) [Example 68, Cyclopropanecarboxylic acid (9-benzyl-6-methoxy-2,3,4,9-tetrahydro-1H-carbazol-3-yl)-amide]	7.34	7.39	98%	–	–	–
CC(C)C(=O)NC1CCc2c(c3cc(C(=O)C(F)(F)F)ccc3n2Cc2cccc(F)c2)C1 (centres unmarked) [Example 210, N-[9-(3-Fluoro-benzyl)-6-(2,2,2-trifluoro-acetyl)-2,3,4,9-tetrahydro-1H-carbazol-3-yl]-isobutyramide]	7.81	7.75	71.2%	–	–	–

From patent US7935722B2 (Eli Lilly and Company, priority 2005, dated 2011)
